One series has as its system HeLa cells. The settings on record: earlier work (Goldberg, Weinberg 2016, 2017); cited from earlier work.
The next series has as its system cultured leukemia cells. The following applies: earlier work (Goldberg, Weinberg 2016, 2017); cited from earlier work.
The conditions of series [1]: earlier work (Goldberg, Weinberg 2017); cited from earlier work.
For another series, the system named is retinoblastoma cells. The following applies: earlier work (Goldberg, Weinberg 2016, 2017); cited from earlier work.
A short description of series [2]: Sequestration of L-lactate by D-lactic acid oligomers, tetrazolium indicator color test strips. The settings on record: for Tetrazolium indicator (L-lactic acid): room temperature, 2 minutes; for sequestration of L-lactate in vitro: summary statement. The procedure: Lactic acid concentration was measured by tetrazolium indicator color test strips (Accuvin, LLC, Napa, Calif.) from the reaction of L-lactic acid and […] in the presence of lactate dehydrogenase. Samples of D-lactic acid oligomers (n=2, n=3, n=4, n=5, and n=6) were weighed on truncated 100 microliter pipette tips. […] The reactions were carried out at room temperature for 2 minutes, then 20 microliters were applied to L-lactic acid test strips, and the results were read after 2 minutes.

A further series concerns normal fibroblasts. The settings on record: at a similar hydrogen ion concentration; cited from earlier work.
Where [3] appears, read: 5.0 mg oligomer in 40 microliters of 10 mM L-lactic acid.

Structures are written as SMILES.

For the compound `C[C@@H](O)C(=O)O[C@H](C)C(=O)O` [D-lactic acid dimer], in the series on HeLa cells, the “killing of cultured HeLa cells” value is “kill”. In the series on cultured leukemia cells, the “killing of cultured leukemia cells” value is given as “kill”. Further, the “sequestration of L-lactate” value in series [1] is reported as ““sequester or trap” L-lactate”. The “killing of cultured retinoblastoma cells” value with retinoblastoma cells was “kill”. The “Tetrazolium indicator (L-lactic acid)” value in series [2] (0.5 mg oligomer in 40 microliters of 10 mM L-lactic acid) is listed as 80 mg/L; in series [2] (1.0 mg oligomer in 40 microliters of 10 mM L-lactic acid), “no color change”; in series [2] (5.0 mg oligomer in 40 microliters of 10 mM L-lactic acid, result in words), “no color change”; in series [2] (7.0 mg oligomer in 40 microliters of 10 mM L-lactic acid), “no color change”. The “cytotoxicity to normal fibroblasts compared with L-lactic acid” value in the series with normal fibroblasts is “less cytotoxic than L-lactic”.

`CC(O)C(=O)OC(C)C(=O)OC(C)C(=O)OC(C)C(=O)OC(C)C(=O)O` [D-lactic acid n = 5, D-lactic acid pentamer]: in series [2] (setting [3]), the “Tetrazolium indicator (L-lactic acid)” value was “greater than 400 mg/L”. In addition, in series [2], the “sequestration of L-lactate in vitro” value is “did not sequester L-lactate”.

As to `CC(O)C(=O)OC(C)C(=O)OC(C)C(=O)OC(C)C(=O)OC(C)C(=O)OC(C)C(=O)O` [D-lactic acid n = 6, D-lactic acid hexamer], the “Tetrazolium indicator (L-lactic acid)” value in series [2] (setting [3]) was “greater than 400 mg/L”. Further, in series [2], the “sequestration of L-lactate in vitro” value is “did not sequester L-lactate”.

Turning to `C[C@@H](O)C(=O)O[C@H](C)C(=O)O[C@H](C)C(=O)O` [D-lactic acid n = 3, D-lactic acid trimer], in series [2] (setting [3]), the “Tetrazolium indicator (L-lactic acid)” value is listed as “greater than 400 mg/L”. Besides, the “sequestration of L-lactate in vitro” value in series [2] is reported as “did not sequester L-lactate”.

As for `CC(O)C(=O)OC(C)C(=O)OC(C)C(=O)OC(C)C(=O)O` [D-lactic acid n = 4, D-lactic acid tetramer], the “Tetrazolium indicator (L-lactic acid)” value in series [2] (setting [3]) is reported as “greater than 400 mg/L”. The “sequestration of L-lactate in vitro” value in series [2] is given as “did not sequester L-lactate”.

The record behind these values is patent US20180273464A1, “SYNTHESIS AND IN VITRO ACTIVITY OF D-LACTIC ACID OLIGOMERS” (priority 2018, published 2018).
